Experimental data reported in patent US8846704B2, “Thiopyrimidine-based compounds and uses thereof” (YM Biosciences Austraila Pty Ltd, priority 2007, dated 2014).

Target: T1, FLT-3 tyrosine kinase (Homo sapiens, UniProt P36888)
T1 construct: purchased Upstate Cell Signalling Solutions, CA, USA 14-500
T1 sequence (P36888 27-993): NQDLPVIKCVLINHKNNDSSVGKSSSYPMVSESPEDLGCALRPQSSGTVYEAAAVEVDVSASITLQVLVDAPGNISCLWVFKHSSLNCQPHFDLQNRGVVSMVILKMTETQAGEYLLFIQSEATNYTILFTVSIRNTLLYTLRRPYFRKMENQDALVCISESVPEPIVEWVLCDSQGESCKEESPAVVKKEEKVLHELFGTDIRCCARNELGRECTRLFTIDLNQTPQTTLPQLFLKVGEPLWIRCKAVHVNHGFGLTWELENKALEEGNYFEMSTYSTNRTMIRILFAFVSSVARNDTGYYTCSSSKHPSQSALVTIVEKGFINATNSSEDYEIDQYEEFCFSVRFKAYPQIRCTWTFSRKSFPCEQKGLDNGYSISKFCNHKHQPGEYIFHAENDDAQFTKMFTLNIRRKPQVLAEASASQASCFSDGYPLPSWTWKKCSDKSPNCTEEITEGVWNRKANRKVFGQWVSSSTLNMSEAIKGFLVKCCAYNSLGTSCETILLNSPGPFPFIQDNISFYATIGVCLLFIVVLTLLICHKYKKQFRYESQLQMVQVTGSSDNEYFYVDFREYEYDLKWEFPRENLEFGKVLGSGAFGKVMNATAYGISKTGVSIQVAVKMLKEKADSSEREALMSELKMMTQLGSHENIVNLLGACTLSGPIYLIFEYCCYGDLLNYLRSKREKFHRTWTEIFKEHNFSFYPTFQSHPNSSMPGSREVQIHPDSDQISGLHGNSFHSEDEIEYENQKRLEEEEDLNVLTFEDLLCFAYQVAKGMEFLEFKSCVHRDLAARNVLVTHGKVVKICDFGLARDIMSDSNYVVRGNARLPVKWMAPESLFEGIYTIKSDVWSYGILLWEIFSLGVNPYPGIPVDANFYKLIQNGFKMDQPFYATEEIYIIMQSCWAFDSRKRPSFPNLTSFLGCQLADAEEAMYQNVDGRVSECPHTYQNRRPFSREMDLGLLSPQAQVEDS
Experiment: Alphascreen tyrosine kinase enzyme assay, FLT-3
Assay type: biochemical
Details: FLT3; read-out: FMS, FLT3, or HCK IC50_nM (FLT3)
Description: For screening purposes, compounds (in 100% DMSO) were warmed at 37 degrees for at least 20 minutes before use. A […] stock was initially made in assay buffer, where the final concentration of DMSO was 0.3%. The stocks were then diluted in 384 well Optiplates (Packard) where the final concentration of the compound was […].
FLT-3 tyrosine kinase enzyme was purchased from Upstate Cell Signalling Solutions, CA, USA (flt-3 catalog #: 14-500).
Kinase assays were performed in 384 well Optiplates (Packard) using an Alphascreen Protein Tyrosine Kinase PY100 detection kit The compounds were pre-incubated with affinity purified PTK domain in the presence of phosphotyrosine assay buffer (10 mM HEPES, pH 7.5, 100 mM MgCl2, 25 mM NaCl, […] and 0.1% Tween 20) for 20 minutes. The compounds were then incubated with substrate in the presence of ATP. The substrate used was susbtrate-1 with the sequence biotin-EGPWLEEEEEAYGWMDF-NH2 [SEQ. ID. NO. 13] (final concentration […]). For HCK 80 μm ATP was used and incubated for 60 minutes. Alphascreen phosphotyrosine acceptor beads followed by streptavidin donor beads at a concentration of 1/100 in stop buffer were added to each well under subdued light and incubated for 2-3 hours., The Alphascreen plates were read on a Packard Fusion Alpha instrument.

## COc1cc(Nc2nccc(Sc3ccc(NCC#N)cc3)n2)cc(OC)c1OC [Compound 52, 2-(4-(2-(3,4,5-trimethoxyphenylao)pyrimidin-4-ylthio)phenylao)acetonitrile]
  IC50: < 500 nM
